Source: PubChem BioAssay (NCI)
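Compound exposure: 48 hours, 5 concentrations, 96-well plates. GI50 = concentration required for 50% inhibition of growth. TGI denotes the concentration required for complete inhibition of growth.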

What was measured:
Assay in all cases: NCI-60 cell line screen, 48 h
MCF7 breast = system: MCF7 breast
DU-145 prostate = system: DU-145 prostate
HS 578T breast = system: HS 578T breast
PC-3 prostate = system: PC-3 prostate
MDA-MB-231 breast = system: MDA-MB-231 breast
MDA-MB-435 = system: MDA-MB-435

CC/C(=N\Nc1nc2ccccc2n1C)c1ccccn1
GI50 (MCF7 breast): 0.0179 µM
TGI (MCF7 breast): 13.9 µM
GI50 (DU-145 prostate): 0.127 µM
TGI (DU-145 prostate): 12.7 µM
GI50 (HS 578T breast): 0.923 µM
TGI (HS 578T breast): 12.7 µM
GI50 (PC-3 prostate): 0.0327 µM
TGI (PC-3 prostate): 13.8 µM
GI50 (MDA-MB-231 breast): 0.14 µM
TGI (MDA-MB-231 breast): 11.8 µM
GI50 (MDA-MB-435): 0.224 µM
TGI (MDA-MB-435): 12.7 µM

Clc1ccc(-c2nc3c(-c4ccc(Cl)cc4)nc(-c4ccccc4)cn3c2-c2ccc(Cl)cc2)cc1
GI50 (MCF7 breast): > 50 µM
TGI (MCF7 breast): > 50 µM
GI50 (DU-145 prostate): > 50 µM
TGI (DU-145 prostate): > 50 µM
GI50 (HS 578T breast): 10.8 µM
TGI (HS 578T breast): > 50 µM
GI50 (PC-3 prostate): > 50 µM
TGI (PC-3 prostate): > 50 µM
GI50 (MDA-MB-231 breast): 27.9 µM
TGI (MDA-MB-231 breast): > 50 µM
GI50 (MDA-MB-435): > 50 µM
TGI (MDA-MB-435): > 50 µM

COc1cc(CNC(=O)/C=C/C=C/c2ccc3c(c2)OCO3)ccc1OCc1cn(-c2ccc(Cl)c(Cl)c2)nn1
GI50 (MCF7 breast): 0.889 µM
TGI (MCF7 breast): 3.23 µM
GI50 (DU-145 prostate): 1.45 µM
TGI (DU-145 prostate): 3.16 µM
GI50 (HS 578T breast): 2.53 µM
TGI (HS 578T breast): 8.56 µM
GI50 (PC-3 prostate): 1.48 µM
TGI (PC-3 prostate): 3.47 µM
GI50 (MDA-MB-231 breast): 1.95 µM
TGI (MDA-MB-231 breast): 5 µM
GI50 (MDA-MB-435): 2 µM
TGI (MDA-MB-435): 4.75 µM

Nc1ccc2c(c1)C(=O)c1ccc(F)cc1-2
TGI (MCF7 breast): > 100 µM
TGI (DU-145 prostate): > 100 µM
TGI (HS 578T breast): > 100 µM
TGI (PC-3 prostate): > 100 µM
TGI (MDA-MB-231 breast): > 100 µM
TGI (MDA-MB-435): > 100 µM

O=C1Cc2cc(CCn3ccnc3)c(Cl)cc2N1
GI50 (MCF7 breast): 4.12 µM
TGI (MCF7 breast): > 100 µM
GI50 (DU-145 prostate): 8.02 µM
TGI (DU-145 prostate): > 100 µM
GI50 (HS 578T breast): 0.873 µM
TGI (HS 578T breast): 9.92 µM
GI50 (PC-3 prostate): 35.6 µM
TGI (PC-3 prostate): > 100 µM
GI50 (MDA-MB-231 breast): 5.18 µM
TGI (MDA-MB-231 breast): > 100 µM
GI50 (MDA-MB-435): 3.12 µM
TGI (MDA-MB-435): 15.2 µM

CC(=O)Nc1ccc2nncnc2c1
TGI (MCF7 breast): > 100 µM
TGI (DU-145 prostate): > 100 µM
TGI (HS 578T breast): > 100 µM
TGI (PC-3 prostate): > 100 µM
TGI (MDA-MB-231 breast): > 100 µM
TGI (MDA-MB-435): > 100 µM

CCN1CCN(CCOc2ccc(CNc3ccc4nc(CCC5CCCCC5)[nH]c4c3)cc2)CC1
GI50 (MCF7 breast): 1.8 µM
TGI (MCF7 breast): 5.84 µM
GI50 (DU-145 prostate): 3.91 µM
TGI (DU-145 prostate): 14 µM
GI50 (HS 578T breast): 1.61 µM
TGI (HS 578T breast): 4.85 µM
GI50 (PC-3 prostate): 2.02 µM
TGI (PC-3 prostate): 5.89 µM
GI50 (MDA-MB-231 breast): 1.6 µM
TGI (MDA-MB-231 breast): 3.11 µM
GI50 (MDA-MB-435): 1.78 µM
TGI (MDA-MB-435): 3.73 µM

Cn1cc(-c2csc(-c3c[nH]c4ncccc34)n2)c2cc(Br)cnc21
GI50 (MCF7 breast): 6.77 µM
TGI (MCF7 breast): > 100 µM
GI50 (DU-145 prostate): 3.51 µM
TGI (DU-145 prostate): > 100 µM
GI50 (HS 578T breast): 2.43 µM
TGI (HS 578T breast): > 100 µM
GI50 (PC-3 prostate): 4.35 µM
TGI (PC-3 prostate): > 100 µM
GI50 (MDA-MB-231 breast): 3.02 µM
TGI (MDA-MB-231 breast): > 100 µM
GI50 (MDA-MB-435): 3.17 µM
TGI (MDA-MB-435): 32.8 µM
